Measurements published in ChEMBL document CHEMBL1201862, “PubChem BioAssay data set” (2004).
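The compound was tested at five concentrations on cells cultured in 96-well plates, with a 48-hour exposure period. The concentration for 50% growth inhibition is given as GI50.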 The source made the active and inactive calls. Rule as the data show it: active = GI50 up to about 1.1 µM and inactive = higher.

How the values were obtained:
Experiment in all cases: NCI-60 cell line screen, 48 h
HOP-62 = tested on: HOP-62
RXF 393 = tested on: RXF 393
MOLT-4 = tested on: MOLT-4
U-251 = tested on: U-251
PC-3 = tested on: PC-3
SN12C = tested on: SN12C
SW-620 = tested on: SW-620
TK-10 = tested on: TK-10
OVCAR-8 = tested on: OVCAR-8
Malme-3M = tested on: Malme-3M
RPMI-8226 = tested on: RPMI-8226
EKVX = tested on: EKVX
CAKI-1 = tested on: CAKI-1
HT-29 = tested on: HT-29
ACHN = tested on: ACHN
HCT-116 = tested on: HCT-116
M14 = tested on: M14
SNB-19 = tested on: SNB-19
UACC-257 = tested on: UACC-257
UO-31 = tested on: UO-31

SMILES	GI50 (HOP-62)	GI50 (RXF 393)	GI50 (MOLT-4)	GI50 (U-251)	GI50 (PC-3)	GI50 (SN12C)	GI50 (SW-620)	GI50 (TK-10)	GI50 (OVCAR-8)	GI50 (Malme-3M)	GI50 (RPMI-8226)	GI50 (EKVX)	GI50 (CAKI-1)	GI50 (HT-29)	GI50 (ACHN)	GI50 (HCT-116)	GI50 (M14)	GI50 (SNB-19)	GI50 (UACC-257)	GI50 (UO-31)
C/C(=C\COP(=O)(O)OP(=O)(O)O)CC/C=C(\C)CNc1ccc([N+](=O)[O-])cc1	> 100 µM (inactive)	> 100 µM (inactive)	> 100 µM (inactive)	> 100 µM (inactive)	> 100 µM (inactive)	> 100 µM (inactive)	> 100 µM (inactive)	> 100 µM (inactive)	> 100 µM (inactive)	> 100 µM (inactive)	> 100 µM (inactive)	> 100 µM (inactive)	> 100 µM (inactive)	> 100 µM (inactive)	> 100 µM (inactive)	> 100 µM (inactive)	> 100 µM (inactive)	> 100 µM (inactive)	71.8 µM (inactive)	> 100 µM (inactive)
CSc1c(C#N)c(N)nc2c(/N=N\c3ccc(Br)cc3)c(N)nn12	11.4 µM (inactive)	7.57 µM (inactive)	3.63 µM (inactive)	6.58 µM (inactive)	8.3 µM (inactive)	6.65 µM (inactive)	5.64 µM (inactive)	15 µM (inactive)	5.85 µM (inactive)	8.69 µM (inactive)	9.84 µM (inactive)	7.78 µM (inactive)	12.6 µM (inactive)	9.53 µM (inactive)	7 µM (inactive)	6.34 µM (inactive)	8.83 µM (inactive)	28.4 µM (inactive)	8.05 µM (inactive)	14.8 µM (inactive)
Cc1ccnc(NC(NC(=O)c2ccccc2)(C(F)(F)F)C(F)(F)F)c1	> 100 µM (inactive)	> 100 µM (inactive)	> 100 µM (inactive)	> 100 µM (inactive)	> 100 µM (inactive)	> 100 µM (inactive)	> 100 µM (inactive)	> 100 µM (inactive)	> 100 µM (inactive)	> 100 µM (inactive)	18.2 µM (inactive)	> 100 µM (inactive)	> 100 µM (inactive)	> 100 µM (inactive)	> 100 µM (inactive)	> 100 µM (inactive)	> 100 µM (inactive)	> 100 µM (inactive)	> 100 µM (inactive)	> 100 µM (inactive)
CN(c1ccc(Cl)cc1)S(=O)(=O)c1ccccc1	71.9 µM (inactive)	11.3 µM (inactive)	28 µM (inactive)	42.9 µM (inactive)	21.6 µM (inactive)	> 100 µM (inactive)	85.5 µM (inactive)	65.6 µM (inactive)	44.6 µM (inactive)	> 100 µM (inactive)	42.3 µM (inactive)	37.6 µM (inactive)	51.3 µM (inactive)	42.3 µM (inactive)	> 100 µM (inactive)	37.5 µM (inactive)	45.1 µM (inactive)	97.7 µM (inactive)	> 100 µM (inactive)	42 µM (inactive)
O=C1CCCC1C(O)(C(F)(F)F)C(F)(F)F (stereo not given)	> 100 µM (inactive)	> 100 µM (inactive)	> 100 µM (inactive)	> 100 µM (inactive)	> 100 µM (inactive)	> 100 µM (inactive)	> 100 µM (inactive)	> 100 µM (inactive)	> 100 µM (inactive)	> 100 µM (inactive)	> 100 µM (inactive)	> 100 µM (inactive)	> 100 µM (inactive)	> 100 µM (inactive)	> 100 µM (inactive)	> 100 µM (inactive)	> 100 µM (inactive)	> 100 µM (inactive)	> 100 µM (inactive)	> 100 µM (inactive)
COC1=CC(=O)c2c(O)c3c(c(O)c2C1=O)CC(C)(O)OC3 (stereo not given) [FUSARUBIN]	3.19 µM (inactive)	4.17 µM (inactive)	2.64 µM (inactive)	3.08 µM (inactive)	2.52 µM (inactive)	3.61 µM (inactive)	3.75 µM (inactive)	10.6 µM (inactive)	2.34 µM (inactive)	0.653 µM (active)	6.37 µM (inactive)	5.32 µM (inactive)	3.73 µM (inactive)	2.12 µM (inactive)	2.95 µM (inactive)	2.96 µM (inactive)	1.87 µM (inactive)	3.27 µM (inactive)	2.02 µM (inactive)	3.97 µM (inactive)
